Reference: US20080107787A1, “Anti-Diabetic Composition with High-Potency Sweetener” (THE COCA-COLA COMPANY, priority 2006, published 2008)

Tests used:
[1] = Rate of dissolution in H2O at 25° C. of rebaudioside A polymorph and amorphous forms; type: physicochemical
Source text: The purification of rebaudioside A by crystallization as described above results in the formation of at least three different polymorphs: Form 1: a rebaudioside A hydrate; Form 2: an anhydrous rebaudioside A; and Form 3: a rebaudioside A solvate. In addition to the at least three polymorph forms of rebaudioside A, the purification of rebaudioside A may result in the formation of an amorphous form of rebaudioside A, Form 4. The aqueous organic solution and temperature of the purification process influence the resulting polymorph and amorphous forms in the substantially pure rebaudioside A composition. FIGS. 1-5 are exemplary powder x-ray diffraction (XRPD) scans of the polymorph and amorphous forms of rebaudioside A: Form 1 (hydrate), Form 2 (anhydrate), Form 3A (methanol solvate), Form 3B (ethanol solvate), and Form 4 (amorphous), respectively.

[2] = type: physicochemical
Protocol: A solution of rebaudioside A (>97% pure by HPLC) was prepared in double distilled water (12.5 gm in 50 mL, 25% concentration) by stirring the mixture at 40° C. for 5 minutes. An amorphous form of rebaudioside A was formed by immediately using the clear solution for spray drying with the Lab-Plant spray drier SD-04 instrument (Lab-Plant Ltd., West Yorkshire, U.K.). The solution was fed through the feed pump into the nozzle atomizer which atomized it into a spray of droplets with the help of a constant flow of nitrogen/air. […] This dry powder (11-12 g, H2O 6.74%) was discharged continuously from the drying chamber and was collected in a bottle.

Substance	Rate of dissolution in H2O at 25° C. ([1]; graded Intermediate or High)	solubility in water at room temperature [2] [%]	Rate of dissolution in H2O at 25° C. ([1]; graded Very low)
rebaudioside A [Form 2]	Intermediate (<30%/5 %/5 minutes	–	–
rebaudioside A [Form 3]	High (>30%/5 %/5 minutes	–	–
rebaudioside A [Form 4]	High (>35%/5 %/5 minutes	> 35.0	–
rebaudioside A [Form 1]	–	–	Very low (<0.2%/60 %/60 minutes
